Six compounds from patent US4565774A, “Method for the formation of dye image” (priority 1981, dated 1986) can be followed below.

The first series can be described thus: acid dissociation constant (Ka) of the added compound, measured at a normal temperature. The class given is physicochemical.
Details: not given
On the procedure: The acid dissociation constant value is what was measured at a normal temperature, and is described in, e.g., the annex vol. 2 to the "Dai Yuki-Kagaku (Complete Organic Chemistry)" (published by Asakura Publishing Co., Ltd.), "The Theory of Photographic Process" written by T. H. James, 4th ed. (Published by McMillan), and the like. For the measurement of the acid dissociation constant there are several methods, and reference may be made to, e.g., the "Jikken Kagaku Koza (Course of Experimental Chemistry)" vol. 11, second series, (published by Maruzen Co., Ltd.) pp. 524 to 552, and the like.
To the above-prepared developer was added each of the compounds as given in Table 1 to thereby prepare color developers [A] to [M].
`Nc1ncnc2nc[nH]c12` [Exemplified compound S-11] gave a pKa of 9.8.

Staying with this series, now noted: normal temperature; read-out: acid dissociation constant (Ka) (converted).
Regarding `c1c[nH]cn1` [Comparative compound (1), Imidazole], the pKa is 7.2.

Turning to `Cc1cc(O)n2ncnc2n1` [Comparative compound (2), 4-hydroxy-6-methyl-1,3,3a,7-tetrazaindene], the pKa was 6.49.

For the compound `Sc1nnnn1-c1ccccc1` [Comparative compound (3), 1-phenyl-5-mercaptotetrazole], the pKa is 3.34.

Regarding `c1ccc2[nH]cnc2c1` [Exemplified compound S-1], the pKa is 11.7.

Turning to `CCCc1ccc2nc[nH]c2c1` [Exemplified compound S-5], the pKa is 10.3.
